In ChEMBL document CHEMBL5223191, “Discovery of a Novel Series of Imidazopyrazine Derivatives as Potent SHP2 Allosteric Inhibitors” (ACS Med Chem Lett, 2023):
Converted amounts (≈) assume the structure as drawn.

Key:
[1] = molecular target: T1, Tyrosine-protein phosphatase non-receptor type 11 (Homo sapiens, UniProt Q06124); assay: Allosteric inhibition of IRS1 peptide-activated human recombinant SHP2 (Met1 to Leu525) expressed in Escherichia coli assessed as inhibition of dephosphorylation of 6,8-difluoro-4-methylumbelliferyl phosphate using DiFMUP as substrate preincubated with enzyme for 30 mins followed by substrate addition and measured after 30 mins by DiFMUP assay
T1 sequence (Q06124 whole entry): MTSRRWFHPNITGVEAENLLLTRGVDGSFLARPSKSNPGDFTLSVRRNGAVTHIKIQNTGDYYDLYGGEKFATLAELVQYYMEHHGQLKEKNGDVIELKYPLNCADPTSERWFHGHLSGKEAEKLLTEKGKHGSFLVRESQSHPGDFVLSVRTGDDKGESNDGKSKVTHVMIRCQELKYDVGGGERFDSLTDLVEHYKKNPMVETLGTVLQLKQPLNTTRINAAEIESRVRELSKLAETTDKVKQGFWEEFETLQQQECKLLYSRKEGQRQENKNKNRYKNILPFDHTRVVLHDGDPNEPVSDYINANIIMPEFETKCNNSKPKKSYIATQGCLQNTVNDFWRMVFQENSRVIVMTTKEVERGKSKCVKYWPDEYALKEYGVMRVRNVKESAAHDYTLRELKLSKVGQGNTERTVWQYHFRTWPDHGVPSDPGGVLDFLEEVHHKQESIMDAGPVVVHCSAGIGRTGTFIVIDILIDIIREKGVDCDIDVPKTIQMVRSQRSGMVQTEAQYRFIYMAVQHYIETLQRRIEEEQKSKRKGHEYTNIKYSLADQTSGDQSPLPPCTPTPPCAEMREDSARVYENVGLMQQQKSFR

[2] = molecular target: T1, Tyrosine-protein phosphatase non-receptor type 11; assay: Allosteric inhibition of SHP2 in human KYSE-520 cells assessed as inhibition of ERK phosphorylation incubated for 2 hrs by TR-FRET assay; assay type: cell-based, KYSE-520 cell line
KYSE-520 cell line = assay: Antiproliferative activity against EGFR-amplified human KYSE-520 cells assessed as inhibition of cell proliferation incubated for 72 hrs by CellTiter-Glo reagent based luminescence assay; assay type: functional; settings: KYSE-520, 72 h
[3] = molecular target: Voltage-gated inwardly rectifying potassium channel KCNH2 (Homo sapiens, UniProt Q12809); assay: Displacement of E-4031 from hERG by fluorescence polarization assay; assay type: toxicity
[4] = Drug metabolism in human liver microsomes assessed as 1'-(6-((2-(trifluoromethyl)pyridin-3-yl)sulfonyl)-1H-imidazo[4,5-b]pyrazin-2-yl)-1,3-dihydrospiro[indene-2,4'-piperidin]-1-amine formation at 1 uM measured after 60 mins in presence of NADPH by MetID study analysis; assay type: ADME, Microsome
[5] = Drug metabolism in human liver microsomes assessed as oxidised metabolite formation at 1 uM measured after 60 mins in presence of NADPH by MetID study analysis; assay type: ADME, Microsome; settings: 1 h
[6] = Drug metabolism in C57BL/6 mouse liver microsomes assessed as oxidised metabolite formation at 1 uM measured after 60 mins in presence of NADPH by MetID study analysis; assay type: ADME, Microsome; settings: 1 h
[7] = Drug metabolism in C57BL/6 mouse liver microsomes assessed as 1'-(6-((2-(trifluoromethyl)pyridin-3-yl)sulfonyl)-1H-imidazo[4,5-b]pyrazin-2-yl)-1,3-dihydrospiro[indene-2,4'-piperidin]-1-amine formation at 1 uM measured after 60 mins in presence of NADPH by MetID study analysis; assay type: ADME, Microsome
[8] = Half life in Sprague-Dawley rat at 0.5 mg/kg, iv measured for 24 hrs by LC-MS/MS analysis; assay type: ADME, organism-based; settings: in vivo
[9] = Intrinsic clearance in C57BL/6 mouse liver microsomes at 1 uM measured for 60 mins in presence of NADPH by LC-MS/MS analysis; assay type: ADME, Microsome; settings: read-out: CLH
[10] = molecular target: T1, Tyrosine-protein phosphatase non-receptor type 11; assay: Binding affinity to N-terminal biotinylated AviTag-G4SG4S-tagged recombinant SHP2 (1 to 525 residues) (unknown origin) by SPR analysis
[11] = Apparent passive permeability of the compound in phosphate buffer saline at pH 7.4 at 5 uM incubated for 4 hrs by PAMPA assay; assay type: ADME
[12] = Volume of distribution at steady state in Sprague-Dawley rat at 0.5 mg/kg, iv measured for 24 hrs by LC-MS/MS analysis; assay type: ADME, organism-based; settings: in vivo, read-out: Vdss
[13] = Intrinsic clearance in Sprague-Dawley rat at 0.5 mg/kg, iv measured for 24 hrs by LC-MS/MS analysis; assay type: ADME, organism-based; settings: in vivo
[14] = Intrinsic clearance in human liver microsomes at 1 uM measured for 60 mins in presence of NADPH by LC-MS/MS analysis; assay type: ADME, Microsome; settings: read-out: CLH
[15] = Kinetic solubility of the compound in phosphate buffer saline at pH 7.4 at 200 uM by LC-UV analysis; assay type: physicochemical; settings: read-out: Kinetic_solubility
[16] = Oral bioavailability in BALB/c mouse at 50 mg/kg measured for 24 hrs by LC-MS/MS analysis; assay type: ADME, organism-based; settings: in vivo
[17] = Volume of distribution at steady state in BALB/c mouse at 1 mg/kg, iv measured for 24 hrs by LC-MS/MS analysis; assay type: ADME, organism-based; settings: in vivo, read-out: Vdss
[18] = Half life in BALB/c mouse at 1 mg/kg, iv measured for 24 hrs by LC-MS/MS analysis; assay type: ADME, organism-based; settings: in vivo
[19] = Intrinsic clearance in BALB/c mouse at 1 mg/kg, iv measured for 24 hrs by LC-MS/MS analysis; assay type: ADME, organism-based; settings: in vivo

Voltage-gated inwardly rectifying potassium channel KCNH2, sequence (Q12809 whole entry): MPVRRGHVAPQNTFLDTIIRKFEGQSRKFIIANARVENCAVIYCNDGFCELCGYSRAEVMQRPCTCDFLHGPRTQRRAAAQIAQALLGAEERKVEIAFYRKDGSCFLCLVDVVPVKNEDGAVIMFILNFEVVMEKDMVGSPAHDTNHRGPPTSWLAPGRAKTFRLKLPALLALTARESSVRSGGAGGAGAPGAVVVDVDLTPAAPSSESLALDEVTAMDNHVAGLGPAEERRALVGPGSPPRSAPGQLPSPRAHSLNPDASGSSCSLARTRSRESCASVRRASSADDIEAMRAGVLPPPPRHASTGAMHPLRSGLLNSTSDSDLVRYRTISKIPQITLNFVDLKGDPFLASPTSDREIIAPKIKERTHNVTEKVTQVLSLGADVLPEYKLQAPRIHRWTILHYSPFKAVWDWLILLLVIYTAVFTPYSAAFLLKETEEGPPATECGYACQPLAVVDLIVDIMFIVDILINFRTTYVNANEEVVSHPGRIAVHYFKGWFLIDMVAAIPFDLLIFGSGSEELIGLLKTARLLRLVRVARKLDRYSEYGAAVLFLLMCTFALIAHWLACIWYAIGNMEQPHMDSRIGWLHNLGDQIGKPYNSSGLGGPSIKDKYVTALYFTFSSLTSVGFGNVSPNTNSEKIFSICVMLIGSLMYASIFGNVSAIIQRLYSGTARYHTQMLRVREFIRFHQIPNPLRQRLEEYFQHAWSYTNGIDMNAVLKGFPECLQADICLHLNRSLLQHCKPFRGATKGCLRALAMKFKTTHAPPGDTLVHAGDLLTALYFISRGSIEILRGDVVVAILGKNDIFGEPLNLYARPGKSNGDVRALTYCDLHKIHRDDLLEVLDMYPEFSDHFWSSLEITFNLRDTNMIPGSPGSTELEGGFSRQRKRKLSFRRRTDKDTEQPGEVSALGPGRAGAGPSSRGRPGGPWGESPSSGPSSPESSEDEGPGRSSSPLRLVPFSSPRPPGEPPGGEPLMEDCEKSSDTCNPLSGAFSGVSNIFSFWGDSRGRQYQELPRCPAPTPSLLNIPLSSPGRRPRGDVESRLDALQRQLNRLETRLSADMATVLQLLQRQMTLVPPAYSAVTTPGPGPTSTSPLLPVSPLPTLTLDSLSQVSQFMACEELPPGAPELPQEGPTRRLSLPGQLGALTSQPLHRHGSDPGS

For CC1(N)CCN(c2cnc(Sc3cccnc3C(F)(F)F)c(N)n2)CC1, the IC50 [1] was 142 nM.
With CC1(N)CCN(c2nc3ncc(Sc4cccnc4C(F)(F)F)nc3[nH]2)CC1 the EC50 [2] was 1760 nM and the IC50 [1] was 74 nM.
CC1(N)CCN(c2nc3ncc(Sc4cccnc4C(F)(F)F)cc3[nH]2)CC1 gave an IC50 [1] of over 33000 nM.
In the case of N[C@@H]1CCCC12CCN(c1nc3nc(Sc4cccnc4C(F)(F)F)cnc3[nH]1)CC2, the IC50 [1] is reported as 290 nM.
With CC1(N)CCN(c2nc3ncc(Oc4cccc(Cl)c4Cl)nc3[nH]2)CC1 the IC50 [1] was 521 nM.
For NC1CCN(c2nc3nc(Sc4cccnc4C(F)(F)F)cnc3[nH]2)CC1, the IC50 [1] was 664 nM.
Work on Nc1nccc(Sc2cnc3[nH]c(N4CCC5(CC4)Cc4ccccc4[C@H]5N)nc3n2)c1Cl yielded an EC50 (KYSE-520 cell line) of 598 nM, an EC50 [2] of 75 nM and an IC50 [1] of 4 nM. The IC50 [3] was 900 nM.
With CC1(N)CCN(c2nc3cnc(Sc4cccnc4C(F)(F)F)nc3[nH]2)CC1 the IC50 [1] was 808 nM.
For N[C@@H]1c2ccccc2CC12CCN(c1nc3nc(Sc4cccnc4C(F)(F)F)cnc3[nH]1)CC2, the EC50 (KYSE-520 cell line) was 547 nM, the Drug metabolism [4] was “Metabolite_Detected” and the Drug metabolism [5] was “Metabolite_Detected”. The Drug metabolism [6] was “Metabolite_Detected”, the EC50 [2] was 42 nM and the Drug metabolism [7] was “Metabolite_Detected”. It also gave a half-life [8] of 0.4 h, an IC50 [1] of 5 nM and a CLint scaled at 1 µM [9] of 297 mL/min/kg. For the same molecule, the Kd [10] was 0.6 nM, the Papp at 4 h, 5 µM [11] was 0.027 ×10⁻⁶ cm/s and the Vd [12] was 0.4 L/kg. The IC50 [3] was 1800 nM, the CL [13] was 24 mL/min/kg and the CLint scaled at 1 µM [14] was 74 mL/min/kg. It also gave a solubility kinetic at 200 µM [15] of 154 µM (≈ 76.6 µg/mL).
CNC1CCN(c2nc3nc(Sc4cccnc4C(F)(F)F)cnc3[nH]2)CC1 showed an IC50 [1] of 1180 nM.
For CNc1nccc(Sc2cnc3[nH]c(N4CCC5(CC4)Cc4ccccc4[C@H]5N)nc3n2)c1Cl, the EC50 (KYSE-520 cell line) was 520 nM, the EC50 [2] was 37 nM and the bioavailability [16] was 7%. The half-life [8] was over 2.3 h, the Vd [17] was 1.8 L/kg and the half-life [18] was over 4 h. It also gave an IC50 [1] of 6 nM, a Papp at 4 h, 5 µM [11] of 0.02 ×10⁻⁶ cm/s and a Vd [12] of 1.9 L/kg. It also gave an IC50 [3] of 4200 nM, a CL [13] of 17 mL/min/kg and a CL [19] of 14 mL/min/kg.
CC1(N)CCN(c2nc3ncc(Sc4cccnc4C(F)(F)F)nc3s2)CC1 showed an IC50 [1] of over 64000 nM.
With Cc1nc2nc(N3CCC(C)(N)CC3)[nH]c2nc1Sc1cccc(Cl)c1Cl the IC50 [1] was 436 nM.
Work on Cn1c(N2CCC(C)(N)CC2)nc2nc(Sc3cccnc3C(F)(F)F)cnc21 yielded an IC50 [1] of 409 nM.
In the case of CC1(N)CCN(c2nc3ccc(Sc4cccnc4C(F)(F)F)cc3[nH]2)CC1, the IC50 [1] is reported as over 16000 nM.
In the case of N[C@@H]1c2ccccc2CC12CCN(c1nc3nc(Sc4ccncc4Cl)cnc3[nH]1)CC2, the EC50 (KYSE-520 cell line) is reported as 325 nM, the EC50 [2] is reported as 51 nM and the IC50 [1] is reported as 3 nM. It also gave an IC50 [3] of 3100 nM.
CC1(N)CCN(c2nc3nc(Sc4cccnc4C(F)(F)F)cnc3s2)CC1 gave an IC50 [1] of 887 nM.
In the case of CC1(N)CCN(c2nc3ncc(Sc4cccc(Cl)c4Cl)nc3[nH]2)CC1, the IC50 [1] is reported as 47 nM.
Molecule C[C@@H]1OCC2(CCN(c3nc4nc(Sc5cccnc5C(F)(F)F)cnc4[nH]3)CC2)[C@@H]1N has an EC50 [2] of 2850 nM and an IC50 [1] of 64 nM.
Molecule CC1(N)CCN(c2nc3ncc(-c4cccc(Cl)c4Cl)nc3[nH]2)CC1 has an IC50 [1] of 797 nM.
Cn1c(N2CCC(C)(N)CC2)nc2ncc(Sc3cccnc3C(F)(F)F)nc21 gave an IC50 [1] of 1360 nM.
For NC1CCCN(c2nc3nc(Sc4cccnc4C(F)(F)F)cnc3[nH]2)C1 (stereo unspecified), the IC50 [1] was 435 nM.
